# Marks after values point to notes of the source that are not given here.
# Columns and labels:
# [1] = test system: MES-induced seizure spread; test: Maximal Electroshock Seizure (MES) test, mice i.p.; assay type: in vivo; conditions: for MES: number of animals protected/total number of animals tested: mice i.p.
# Text: (§1) The fluoro derivatives synthesized were submitted to the National Institute of Neurological Disorders and Stroke (NINDS) for evaluation in a standard panel of assays. Two convulsant tests (MES and scMET), and a toxicity screen (rotorod in mice, positional sense and gait in rats) were employed for evaluating the compounds activity as neuroprotecting agents. These testing procedures are described in detail in Molecular and Cellular Targets for Anti-epileptic Drugs, eds. G. Avanzini, G. Regesta, P. Tanganelli, M. Avoli, 1997, John Libbey & Company Ltd, pp 191-198. The felbamate derivatives were evaluated for anticonvulsant activity following intraperitoneal (i.p.) administration in mice and oral administration in rats.
# (§2) The MES test is a model for generalized tonic-clonic seizures and is used to identify compounds which prevent seizure spread. The behavioral and electrographic seizures generated in this model are consistent with the human disorder. In the MES test, an electrical stimulus of 0.2 s in duration (50 mA in mice and 150 mA in rat at 60 Hz) was delivered via corneal electrodes primed with an electrolyte solution containing an anesthetic agent. Mice were tested at 30 minutes and 4 hours following doses of 30, 100 and 300 mg/kg of test compound. Rats were tested at time intervals between 0.25 and 4 hours following a standard oral dose of 30 mg/kg. Abolition of the hindlimb tonic extensor component indicates the test compound's ability to inhibit MES-induced seizure spread.
# (§3) For the MES and scMET tests the data is presented in the form of the number of animals protected by the administered compound/total number of animals tested. […] Qualitative data was obtained for fluoro felbamate 12 (Tables 1 and 2A), fluoro monocarbamate felbamate 13 (Tables 1 and 2B), and flourodioxo 16 (Tables 1 and 2C) and for cyclic felbamate 21 (Tables 5 and 6B) and cyclic monocarbamate 22 (Tables 5 and 6A). More extensive quantitative data was also obtained for fluoro felbamate 12 in mice (Table 3) and rats (Table 4).
# [2] = test system: pentylenetetrazol-induced clonic seizures; test: Subcutaneous Metrazol seizure test (scMET), mice i.p.; assay type: in vivo, Carworth Farms No. 1 mice
# Text: as §1
# This is a model that primarily identifies compounds that raise seizure threshold. With some minor exceptions, the pharmacological profile of the scMET seizure model is consistent with the human condition. The scMET test utilizes a dose of pentylenetetrazol (85 mg/kg in Carworth Farms No. 1 mice and 70 mg/kg in Sprague-Dawley rats) that induces clonic seizures lasting for a period of at least five seconds in 97% (CD97) of animals tested. At the anticipated time of testing the convulsant is administered subcutaneously. The test compound is administered intraperitoneally in mice and orally in rats. Animals are observed over a 30 minute period. Absence of clonic spasms in the observed time period indicates a compound's ability to abolish the effect of pentylenetetrazol on seizure threshold.
# as §3
# [3] = test system: mice (rotorod); test: Minimal neurotoxicity (TOX), rotorod test, mice i.p.; assay type: in vivo; conditions: for TOX: number of animals exhibiting toxic effects/total number of animals tested: mice i.p.
# Text: as §1, with “G. Avanzini, G. Regesta, P. Tanganelli, M. Avoli, 1997, John Libbey & Company Ltd, pp 191-198.” left out, “rats. […]” for “rats.”
# [4] = test system: MES-induced seizure spread; test: Maximal Electroshock Seizure (MES) test, rats p.o.; assay type: in vivo; conditions: for anti-seizure activity in rats: rat models; for MES: number of animals protected/total number of animals tested: rat p.o.; for MES: number of animals protected/total number of animals tested / MES protection: 30 mg/kg; for MES protection: rats, oral, several timepoints
# Text: as §1, §2, §3
# [5] = test system: rats (positional sense, gait and stance); test: Minimal neurotoxicity (TOX), positional sense and gait and stance tests, rats p.o.; assay type: in vivo; conditions: for TOX: number of animals exhibiting toxic effects/total number of animals tested: rat p.o., 30 mg/kg
# Text: as §1, with “G. Avanzini, G. Regesta, P. Tanganelli, M. Avoli, 1997, John Libbey & Company Ltd, pp 191-198.” left out
# Rats are examined for behavioral toxicity by the positional sense test and a gait and stance test. […] In the gait and stance test, neurotoxicity is indicated by a circular or zigzag gait, ataxia, abnormal spread of the legs, abnormal posture, tremor hyperactivity, lack of exploratory behavior, somnolence, stupor or catalepsy.
# For the MES and scMET tests the data is presented in the form of the number of animals protected by the administered compound/total number of animals tested.
# [6] = test system: hippocampal kindled focal seizures; test: Hippocampal kindling model, kindled rats i.p.; assay type: in vivo, adult male Sprague-Dawley rats; conditions: for Number Protected/Number Tested: Dose Responses table
# Text: The hippocampal kindling model can be used to evaluate a compound's ability to affect both the expression and acquisition of focal seizures. The hippocampal kindling paradigm as described by Lothman and Williamson (Lothman, 1994) allows the temporal effects of a drug to be evaluated in a single animal. This procedure requires the surgical placement of bipolar electrodes in the ventral hippocampus of adult male Sprague-Dawley rats. Stage five behavioral seizures are produced by using a stimulus consisting of a 50 Hz, 10 s train of 1 ms biphasic 200 uA pulses delivered every 30 min for 6 hours (12 stimuli per day) on alternating days for a total of 60 stimulations (five stimulus days). Prior to evaluating a candidate's anticonvulsant activity, a drug free control period consisting of supramaximal stimulations are recorded to verify the stability of a stage five generalized seizure.
# A single dose of the candidate compound is then administered intraperitoneally (i.p.), 15 min following the last control stimulation. The anticonvulsant activity of the drug is assessed every 30 min for three to four hours starting 15 min after administering the test material. After each stimulation, individual Racine seizure scores and afterdischarge durations are recorded. Rats are used again in drug trials after four to five drug- and stimulus-free days.
# [7] = Stability of oxazinane-dione at relevant pH; assay type: physicochemical
smiles,measurement,setting,value
NC(=O)OCC1(c2ccccc2)COC(=O)N1 (stereo not drawn) [cyclic felbamate],MES: number of animals protected/total number of animals tested,"[1]; 30 mg/kg, 0.5 h",0/1
same,MES: number of animals protected/total number of animals tested,"[1]; 30 mg/kg, 4.0 h",0/1
same,MES: number of animals protected/total number of animals tested,"[1]; 100 mg/kg, 0.5 h",0/3
same,MES: number of animals protected/total number of animals tested,"[1]; 100 mg/kg, 4.0 h",0/3
same,MES: number of animals protected/total number of animals tested,"[1]; 300 mg/kg, 0.5 h",0/1
same,MES: number of animals protected/total number of animals tested,"[1]; 300 mg/kg, 4.0 h",0/1
same,ScMET: number of animals protected/total number of animals tested,"[2]; 30 mg/kg, 0.5 h",0/1
same,ScMET: number of animals protected/total number of animals tested,"[2]; 30 mg/kg, 4.0 h",0/1
same,ScMET: number of animals protected/total number of animals tested,"[2]; 100 mg/kg, 0.5 h",0/1
same,ScMET: number of animals protected/total number of animals tested,"[2]; 100 mg/kg, 4.0 h",0/1
same,ScMET: number of animals protected/total number of animals tested,"[2]; 300 mg/kg, 0.5 h",0/1
same,ScMET: number of animals protected/total number of animals tested,"[2]; 300 mg/kg, 4.0 h",0/1
same,TOX: number of animals exhibiting toxic effects/total number of animals tested,"[3]; 30 mg/kg, 0.5 h",0/4
same,TOX: number of animals exhibiting toxic effects/total number of animals tested,"[3]; 30 mg/kg, 4.0 h",0/2
same,TOX: number of animals exhibiting toxic effects/total number of animals tested,"[3]; 100 mg/kg, 0.5 h",0/8
same,TOX: number of animals exhibiting toxic effects/total number of animals tested,"[3]; 100 mg/kg, 4.0 h",0/4
same,TOX: number of animals exhibiting toxic effects/total number of animals tested,"[3]; 300 mg/kg, 0.5 h",0/4
same,TOX: number of animals exhibiting toxic effects/total number of animals tested,"[3]; 300 mg/kg, 4.0 h",0/2
same,anti-seizure activity in rats,[4],potent activity
same,MES: number of animals protected/total number of animals tested,[4]; 0.25 h,2/4
same,MES: number of animals protected/total number of animals tested,[4]; 0.5 h,2/4
same,MES: number of animals protected/total number of animals tested,[4]; 1.0 h,3/4
same,MES: number of animals protected/total number of animals tested,[4]; 2.0 h,0/4
same,MES: number of animals protected/total number of animals tested,[4]; 4.0 h,3/4
same,TOX: number of animals exhibiting toxic effects/total number of animals tested,[5]; 0.25 h,0/4
same,TOX: number of animals exhibiting toxic effects/total number of animals tested,[5]; 0.5 h,0/4
same,TOX: number of animals exhibiting toxic effects/total number of animals tested,[5]; 1.0 h,0/4
same,TOX: number of animals exhibiting toxic effects/total number of animals tested,[5]; 2.0 h,0/4
same,TOX: number of animals exhibiting toxic effects/total number of animals tested,[5]; 4.0 h,0/4
"O=C1NC(=O)C(F)(c2ccccc2)CO1 (stereo not drawn) [fluoro dioxo, 5-Fluoro-5-phenyl-1,3-oxazinane-2,4-dione]",anti-seizure activity in mice,[1]; mice,inactive
same,anti-seizure activity in rats,[4],strong anti-seizure activity
"NC(=O)OCC(F)(COC(N)=O)c1ccccc1 [fluoro felbamate, 2-Fluoro-2-phenyl-1,3-propanediol dicarbamate]",MES protection,"[1]; mice, 30 mg/kg, at both 30 minutes and 4 hours",MES protective effects
same,times more active than felbamate,[1]; test not specified,5-10 times
same,dosage at which toxicity across time occurs,[3]; mice,≥ 300 mg/kg
same,toxic effects,"[3]; mice, 30 mg/kg, 30 minute timepoint",some toxic effects
same,safety ratio,"[3]; mice, quantitative results (Table 3)",at least five
same,TOX ED50,"[3]; mouse, I.P.",115 mg/kg
same,MES protection,[4],full protection
same,no toxicity at doses up to,[5]; oral administration to rats,up to 500 mg/kg
same,TOX ED50,"[5]; rat, p.o.",>500 mg/kg
same,Number Protected/Number Tested,[6]; 25 mg/kg,0/7
same,Number Protected/Number Tested,[6]; 50 mg/kg,3/7
same,Number Protected/Number Tested,[6]; 100 mg/kg,7/8^a
same,afterdischarge duration,"[6]; kindled rats, 100 mg/kg",corresponding decrease in afterdischarge duration
same,seizure score,"[6]; kindled rats, 100 mg/kg",significant drop in seizure score
"NC(=O)OCC(F)(CO)c1ccccc1 (stereo not drawn) [fluoro monocarbamate felbamate, 2-Fluoro-2-phenyl-1,3-propanediol monocarbamate]",MES protection,"[1]; mice, 100 mg/kg",moderate MES protection
same,MES protection,[4],protection is seen at several different timepoints
O=C1NC(=O)C(c2ccccc2)CO1 (stereo not drawn) [oxazinane-dione 9],stability at relevant pH,[7],unstable

# From patent US6759402B2, “Cyclic felbamate derived compounds” (University of Virginia Patent Foundation, priority 1999, dated 2004)
